Experiments:
in vivo = experiment: in vivo; parameters: species or system dogs; details: dog
From the text: (§1) Due to the cardiac effects observed with daily dosing in preclinical models, intermittent-dosing toxicology studies administering 2-{4-[(4-{[1-cyclopropyl-3-(tetrahydro-2H-pyran-4-yl)-1H-pyrazol-4-yl]oxy}pyridin-2-yl)amino]pyridin-2-yl}propan-2-ol 4-methylbenzenesulfonate for 3 months in dogs and rats were completed to support clinical dosing. The two dosing schedules evaluated were 2 weeks of daily dosing followed by 2 weeks of no dosing (2 weeks on/2 weeks off) or 3 weeks of daily dosing followed by 1 week of no-dosing (3 weeks on/1 week off). […] Margins of safety based on the NOAELs for the 3-month studies support the proposed clinical dose range of 10 to 100 mg in patients.

[1] = 3-month intermittent-dosing toxicology study in rats; assay type: in vivo
From the text: as §1

SMILES: CC(C)(O)c1cc(Nc2cc(Oc3cn(C4CC4)nc3C3CCOCC3)ccn2)ccn1 [2-{4-[(4-{[1-cyclopropyl-3-(tetrahydro-2H-pyran-4-yl)-1H-pyrazol-4-yl]oxy}pyridin-2-yl)amino]pyridin-2-yl}propan-2-ol 4-methylbenzenesulfonate]
- NOAEL at 3 months (in vivo): 7.5 mg/kg
- adverse effects (in vivo): no adverse effects
- cardiac effects ([1]; rat, 12 mg/kg, 3 cycles of the 3-week-on/1-week-off schedule): limited to aortic inflammation and degeneration in a single female animal
- compound-related, adverse effects ([1]; rats, 3 months, 2-week on/2-week-off dosing schedule): no compound-related, adverse effects detected
